Molecular target: T1, Ubiquitin-like modifier-activating enzyme 1 (Homo sapiens, UniProt P22314)
T1 sequence (P22314 whole entry): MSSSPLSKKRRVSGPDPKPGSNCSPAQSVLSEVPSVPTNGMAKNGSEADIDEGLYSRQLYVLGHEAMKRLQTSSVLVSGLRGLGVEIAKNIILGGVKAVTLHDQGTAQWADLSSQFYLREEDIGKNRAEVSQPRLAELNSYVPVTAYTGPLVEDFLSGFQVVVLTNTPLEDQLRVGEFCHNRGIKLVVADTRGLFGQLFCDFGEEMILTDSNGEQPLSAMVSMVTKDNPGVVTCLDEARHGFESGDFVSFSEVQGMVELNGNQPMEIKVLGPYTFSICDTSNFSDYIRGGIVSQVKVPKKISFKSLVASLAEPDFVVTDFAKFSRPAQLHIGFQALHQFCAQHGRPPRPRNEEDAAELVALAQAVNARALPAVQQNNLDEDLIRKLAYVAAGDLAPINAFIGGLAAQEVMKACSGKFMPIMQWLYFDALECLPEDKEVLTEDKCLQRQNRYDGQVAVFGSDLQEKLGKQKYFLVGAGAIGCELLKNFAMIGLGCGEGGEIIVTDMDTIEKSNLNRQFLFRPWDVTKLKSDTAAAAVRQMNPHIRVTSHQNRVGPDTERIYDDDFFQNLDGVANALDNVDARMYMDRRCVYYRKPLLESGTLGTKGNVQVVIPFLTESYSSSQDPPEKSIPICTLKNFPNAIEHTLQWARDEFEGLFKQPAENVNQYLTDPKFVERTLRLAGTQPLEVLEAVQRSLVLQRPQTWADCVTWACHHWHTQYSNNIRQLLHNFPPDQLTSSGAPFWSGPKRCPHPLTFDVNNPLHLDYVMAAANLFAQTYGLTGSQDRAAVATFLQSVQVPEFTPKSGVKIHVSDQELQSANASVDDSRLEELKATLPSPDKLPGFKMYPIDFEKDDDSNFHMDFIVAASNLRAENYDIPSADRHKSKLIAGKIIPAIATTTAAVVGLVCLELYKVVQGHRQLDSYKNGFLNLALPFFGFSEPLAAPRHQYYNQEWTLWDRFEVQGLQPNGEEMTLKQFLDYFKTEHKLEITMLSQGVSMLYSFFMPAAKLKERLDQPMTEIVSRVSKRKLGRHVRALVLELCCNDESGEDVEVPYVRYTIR
Assay: Inhibition of human recombinant E1-ubiquitin complex formation

- IC50: 40.4 µM
SMILES: CC(C)(O)/C=C/[C@@]12[C@H]3[C@@H](O)[C@@H]4O[C@@H]4[C@]1(O)OC(C)(C)[C@@H]2C=C1C(=O)[C@H]2O[C@H]2[C@H](O)[C@H]13 [PANEPOPHENANTHRIN]

Source: ChEMBL document CHEMBL1150661, “Panepophenanthrin, from a mushroom strain, a novel inhibitor of the ubiquitin-activating enzyme” (J Nat Prod, 2002)
